Literature values in patent publication US10905116B2, “Antimicrobial fabric assemblies” (Higher Dimension Materials, Inc., priority 2016, dated 2021).

Key:
E. coli = conditions: against E. coli

| SMILES | MIC value (Minimum Inhibitory Value) (E. coli) | silver ion concentration enough to cause antimicrobial activity (bacterium; released from silver nanoparticles confined in nanoscale cages, conditions of normal water, estimated) | number of silver ions to kill a single bacterium (bacterium; reported) |
| --- | --- | --- | --- |
| [Ag] [silver] | 0.05 to 0.1 µg/mL | – | – |
| [Ag+] [silver ion] | – | 50 parts per billion | about 100 |
